Holding throughout (test): relative viability (nuclei count vs DMSO), 5 days (fraction); higher = more cells survive
Compound in the assay “Bosutinib + Palbociclib”: COc1cc(Nc2c(C#N)cnc3cc(OCCCN4CCN(C)CC4)c(OC)cc23)c(Cl)cc1Cl [Bosutinib] + CC(=O)c1c(C)c2cnc(Nc3ccc(N4CCNCC4)cn3)nc2n(C2CCCC2)c1=O [Palbociclib] (partner 0.5 µM)
The method in brief:
(§1)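 Lung cancer cell lines were seeded in 1536-well plates and dosed by pin tool the next day, with either a single drug or a fixed anchor-drug dose combined with five library-drug doses (not always all listed) spaced in √10 steps. Five days later, one step fixed the cells and stained their nuclei (final 0.05% Triton X-100, 1% formaldehyde, 1 ug/ml Hoechst), and nuclei were counted on 4× images. Relative viability is the nuclei count in treated wells divided by the count in vehicle wells, and each value is the median of duplicate plates.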

Compound in the assay “Bosutinib + Bortezomib”: COc1cc(Nc2c(C#N)cnc3cc(OCCCN4CCN(C)CC4)c(OC)cc23)c(Cl)cc1Cl [Bosutinib] + CC(C)C[C@H](NC(=O)[C@H](Cc1ccccc1)NC(=O)c1cnccn1)B(O)O [Bortezomib] (partner 0.002 µM)
A digest of the protocol: as §1

Compound in the assay “Bosutinib + OSI-027”: COc1cc(Nc2c(C#N)cnc3cc(OCCCN4CCN(C)CC4)c(OC)cc23)c(Cl)cc1Cl [Bosutinib] + COc1cccc2cc(-c3nc([C@H]4CC[C@H](C(=O)O)CC4)n4ncnc(N)c34)[nH]c12 [OSI-027] (partner 0.5 µM)
The method in brief: as §1

Compound in the assay “Bosutinib + Tozasertib”: COc1cc(Nc2c(C#N)cnc3cc(OCCCN4CCN(C)CC4)c(OC)cc23)c(Cl)cc1Cl [Bosutinib] + Cc1cc(Nc2cc(N3CCN(C)CC3)nc(Sc3ccc(NC(=O)C4CC4)cc3)n2)n[nH]1 [Tozasertib] (partner 0.1 µM)
The method in brief:
as §1

Compound in the assay “Bosutinib + Pemetrexed”: COc1cc(Nc2c(C#N)cnc3cc(OCCCN4CCN(C)CC4)c(OC)cc23)c(Cl)cc1Cl [Bosutinib] + Nc1nc2[nH]cc(CCc3ccc(C(=O)N[C@@H](CCC(=O)O)C(=O)O)cc3)c2c(=O)[nH]1 [Pemetrexed] (partner 0.2 µM)
The method in brief: as §1

As for NCI-H838, the relative viability with Bosutinib + Palbociclib (first compound 0.01 µM) amounted to 0.23; with Bosutinib + Palbociclib (first compound 0.03162 µM), 0.209; with Bosutinib + Palbociclib (first compound 0.1 µM), 0.2; with Bosutinib + Palbociclib (first compound 1 µM), 0.174; with Bosutinib + Bortezomib (first compound 0.01 µM) it was 0.97; with Bosutinib + Bortezomib (first compound 0.03162 µM) it was 0.794. The relative viability with Bosutinib + Bortezomib (first compound 0.1 µM) was 0.78; with Bosutinib + Bortezomib (first compound 1 µM), 0.577; with Bosutinib + OSI-027 (first compound 0.01 µM), 0.43; with Bosutinib + OSI-027 (first compound 0.03162 µM) it was 0.45; with Bosutinib + OSI-027 (first compound 0.1 µM), 0.361; in the assay with Bosutinib + OSI-027 (first compound 1 µM) it was 0.317. Further, the relative viability was 0.306 with Bosutinib + Tozasertib (first compound 0.01 µM); 0.294 with Bosutinib + Tozasertib (first compound 0.03162 µM); 0.263 with Bosutinib + Tozasertib (first compound 0.1 µM); 0.215 with Bosutinib + Tozasertib (first compound 1 µM); 0.268 in the assay with Bosutinib + Pemetrexed (first compound 0.01 µM); 0.229 with Bosutinib + Pemetrexed (first compound 0.03162 µM). Besides, the results for the relative viability in the assay with Bosutinib + Pemetrexed (first compound 0.1 µM) and in the assay with Bosutinib + Pemetrexed (first compound 1 µM) were 0.246 and 0.253, respectively.
As for NCI-H3122, the relative viability in the assay with Bosutinib + Palbociclib (first compound 0.01 µM) worked out at 0.214; in the assay with Bosutinib + Palbociclib (first compound 0.03162 µM), 0.18; in the assay with Bosutinib + Palbociclib (first compound 0.1 µM) it was 0.201; with Bosutinib + Palbociclib (first compound 1 µM) it was 0.218; in the assay with Bosutinib + Bortezomib (first compound 0.01 µM), 1; in the assay with Bosutinib + Bortezomib (first compound 0.03162 µM), 1.1. Further, the relative viability stood at 1.04 with Bosutinib + Bortezomib (first compound 0.1 µM); 1.06 with Bosutinib + Bortezomib (first compound 1 µM); 1.05 in the assay with Bosutinib + OSI-027 (first compound 0.01 µM); 1.04 in the assay with Bosutinib + OSI-027 (first compound 0.03162 µM); 1.03 with Bosutinib + OSI-027 (first compound 0.1 µM); 1.17 with Bosutinib + OSI-027 (first compound 1 µM). Moreover, the relative viability in the assay with Bosutinib + Tozasertib (first compound 0.01 µM) was 0.495; with Bosutinib + Tozasertib (first compound 0.03162 µM) it was 0.547; with Bosutinib + Tozasertib (first compound 0.1 µM) it was 0.405; with Bosutinib + Tozasertib (first compound 1 µM) it was 0.431; in the assay with Bosutinib + Pemetrexed (first compound 0.01 µM) it was 0.201; with Bosutinib + Pemetrexed (first compound 0.03162 µM) it was 0.199. Also, the relative viability was 0.207 with Bosutinib + Pemetrexed (first compound 0.1 µM) and 0.202 in the assay with Bosutinib + Pemetrexed (first compound 1 µM).
Turning to SK-MES-1, the relative viability was found to be 0.329 in the assay with Bosutinib + Palbociclib (first compound 0.01 µM); 0.327 in the assay with Bosutinib + Palbociclib (first compound 0.03162 µM); 0.326 with Bosutinib + Palbociclib (first compound 0.1 µM); 0.295 with Bosutinib + Palbociclib (first compound 1 µM); 0.64 in the assay with Bosutinib + OSI-027 (first compound 0.01 µM); 0.681 with Bosutinib + OSI-027 (first compound 0.03162 µM). Besides, the relative viability in the assay with Bosutinib + OSI-027 (first compound 0.1 µM) came out at 0.671; in the assay with Bosutinib + OSI-027 (first compound 1 µM) it was 0.38; in the assay with Bosutinib + Tozasertib (first compound 0.01 µM), 0.95; in the assay with Bosutinib + Tozasertib (first compound 0.03162 µM), 0.927; in the assay with Bosutinib + Tozasertib (first compound 0.1 µM), 0.844; in the assay with Bosutinib + Tozasertib (first compound 1 µM), 0.854. In addition, the relative viability in the assay with Bosutinib + Pemetrexed (first compound 0.01 µM) is 0.94; with Bosutinib + Pemetrexed (first compound 0.03162 µM), 1.03; with Bosutinib + Pemetrexed (first compound 0.1 µM) it was 0.938; with Bosutinib + Pemetrexed (first compound 1 µM) it was 0.556.
In the case of NCI-H1944, the relative viability with Bosutinib + Palbociclib (first compound 0.01 µM) worked out at 0.363; with Bosutinib + Palbociclib (first compound 0.03162 µM), 0.362; with Bosutinib + Palbociclib (first compound 0.1 µM) it was 0.373; with Bosutinib + Palbociclib (first compound 1 µM) it was 0.298; with Bosutinib + OSI-027 (first compound 0.01 µM) it was 0.436; with Bosutinib + OSI-027 (first compound 0.03162 µM) it was 0.412. The relative viability in the assay with Bosutinib + OSI-027 (first compound 0.1 µM) came to 0.379; with Bosutinib + OSI-027 (first compound 1 µM) it was 0.374; with Bosutinib + Tozasertib (first compound 0.01 µM) it was 0.275; with Bosutinib + Tozasertib (first compound 0.03162 µM), 0.262; in the assay with Bosutinib + Tozasertib (first compound 0.1 µM), 0.258; in the assay with Bosutinib + Tozasertib (first compound 1 µM), 0.19. The relative viability was found to be 0.706 in the assay with Bosutinib + Pemetrexed (first compound 0.01 µM), 0.624 with Bosutinib + Pemetrexed (first compound 0.03162 µM), 0.555 in the assay with Bosutinib + Pemetrexed (first compound 0.1 µM) and 0.601 in the assay with Bosutinib + Pemetrexed (first compound 1 µM).
On to LK-2, for which the relative viability in the assay with Bosutinib + Palbociclib (first compound 0.01 µM) was 0.681; in the assay with Bosutinib + Palbociclib (first compound 0.03162 µM), 0.636; with Bosutinib + Palbociclib (first compound 0.1 µM), 0.584; in the assay with Bosutinib + Palbociclib (first compound 1 µM), 0.66; in the assay with Bosutinib + OSI-027 (first compound 0.01 µM) it was 0.256; with Bosutinib + OSI-027 (first compound 0.03162 µM), 0.253. In addition, the relative viability came out at 0.192 with Bosutinib + OSI-027 (first compound 0.1 µM); 0.185 with Bosutinib + OSI-027 (first compound 1 µM); 0.194 with Bosutinib + Tozasertib (first compound 0.01 µM); 0.168 with Bosutinib + Tozasertib (first compound 0.03162 µM); 0.191 with Bosutinib + Tozasertib (first compound 0.1 µM); 0.178 with Bosutinib + Tozasertib (first compound 1 µM). The relative viability is 0.235 with Bosutinib + Pemetrexed (first compound 0.01 µM), 0.281 with Bosutinib + Pemetrexed (first compound 0.03162 µM), 0.321 in the assay with Bosutinib + Pemetrexed (first compound 0.1 µM) and 0.266 in the assay with Bosutinib + Pemetrexed (first compound 1 µM).
In the case of NCI-H1395, the relative viability in the assay with Bosutinib + Palbociclib (first compound 0.01 µM) came out at 0.595; with Bosutinib + Palbociclib (first compound 0.03162 µM), 0.539; with Bosutinib + Palbociclib (first compound 0.1 µM) it was 0.643; with Bosutinib + Palbociclib (first compound 1 µM), 0.48; with Bosutinib + OSI-027 (first compound 0.01 µM) it was 0.679; with Bosutinib + OSI-027 (first compound 0.03162 µM) it was 0.662. Besides, the relative viability with Bosutinib + OSI-027 (first compound 0.1 µM) stood at 0.771; in the assay with Bosutinib + OSI-027 (first compound 1 µM) it was 0.629; with Bosutinib + Tozasertib (first compound 0.01 µM) it was 0.758; with Bosutinib + Tozasertib (first compound 0.03162 µM), 0.727; with Bosutinib + Tozasertib (first compound 0.1 µM) it was 0.718; with Bosutinib + Tozasertib (first compound 1 µM), 0.66. Also, the relative viability in the assay with Bosutinib + Pemetrexed (first compound 0.01 µM) is 0.964; with Bosutinib + Pemetrexed (first compound 0.03162 µM) it was 0.966; with Bosutinib + Pemetrexed (first compound 0.1 µM), 0.958; with Bosutinib + Pemetrexed (first compound 1 µM), 0.926.
Turning to NCI-H2170, the relative viability worked out at 0.351 with Bosutinib + Palbociclib (first compound 0.01 µM); 0.373 in the assay with Bosutinib + Palbociclib (first compound 0.03162 µM); 0.383 with Bosutinib + Palbociclib (first compound 0.1 µM); 0.4 in the assay with Bosutinib + Palbociclib (first compound 1 µM); 0.7 in the assay with Bosutinib + OSI-027 (first compound 0.01 µM); 0.684 with Bosutinib + OSI-027 (first compound 0.03162 µM). In addition, the relative viability with Bosutinib + OSI-027 (first compound 0.1 µM) amounted to 0.732; with Bosutinib + OSI-027 (first compound 1 µM), 0.654; in the assay with Bosutinib + Tozasertib (first compound 0.01 µM), 0.749; with Bosutinib + Tozasertib (first compound 0.03162 µM), 0.758; with Bosutinib + Tozasertib (first compound 0.1 µM) it was 0.683; with Bosutinib + Tozasertib (first compound 1 µM), 0.632. The relative viability in the assay with Bosutinib + Pemetrexed (first compound 0.01 µM) amounted to 0.261; with Bosutinib + Pemetrexed (first compound 0.03162 µM), 0.262; with Bosutinib + Pemetrexed (first compound 0.1 µM), 0.251; in the assay with Bosutinib + Pemetrexed (first compound 1 µM), 0.26.
With NCI-H1793, the relative viability with Bosutinib + Palbociclib (first compound 0.01 µM) was 0.272; in the assay with Bosutinib + Palbociclib (first compound 0.03162 µM), 0.311; with Bosutinib + Palbociclib (first compound 0.1 µM), 0.326; in the assay with Bosutinib + Palbociclib (first compound 1 µM), 0.266; with Bosutinib + OSI-027 (first compound 0.01 µM), 0.254; with Bosutinib + OSI-027 (first compound 0.03162 µM) it was 0.276. In addition, the relative viability was found to be 0.262 with Bosutinib + OSI-027 (first compound 0.1 µM); 0.23 with Bosutinib + OSI-027 (first compound 1 µM); 0.363 with Bosutinib + Tozasertib (first compound 0.01 µM); 0.404 with Bosutinib + Tozasertib (first compound 0.03162 µM); 0.373 with Bosutinib + Tozasertib (first compound 0.1 µM); 0.23 in the assay with Bosutinib + Tozasertib (first compound 1 µM). For the same cell line, the relative viability worked out at 0.86 in the assay with Bosutinib + Pemetrexed (first compound 0.01 µM), 0.792 with Bosutinib + Pemetrexed (first compound 0.03162 µM), 0.829 in the assay with Bosutinib + Pemetrexed (first compound 0.1 µM) and 0.639 with Bosutinib + Pemetrexed (first compound 1 µM).

The values above are taken from the supplement of paper PMC10307832.
